Regarding `COc1ccc(C2=NN(Cc3ccc([N+](=O)[O-])cc3)C(=O)CC2)cc1OC` [Example 1, 2-(4-Nitrobenzyl)-6-(3,4-dimethoxyphenyl) -2,3,4,5-tetrahydropyridazin-3-one], the melting point is 126 °C.

As a reminder, the melting point is the temperature of the solid-liquid transition.
